# From patent US20040146987A1, “Rapidly degraded reporter fusion proteins” (Promega Corporation, priority 2002, published 2004)
# Read-outs that look alike come from different tables or passages of the source.
# Tests used:
# [1] = test system: protein synthesis; assay: inhibition of protein synthesis by cycloheximide; type: cell-based; conditions: 100 μg/ml
# Method: The half-life of the protein encoded by plasmid pUbiq(Y)Luc 19 was determined in mammalian cells and compared to the half-lives of wild-type luciferase as well as fusion proteins comprising firefly luciferase and a mutant form of the C-ODC (Luc-PEST10). This was done by evaluating the luminescence emitted by cells that were transiently transfected with either plasmid pUbiq(Y)Luc19 or pwtLuc1 or pLuc-PEST 10, respectively, and then, for different periods of time, were exposed to the protein synthesis inhibitor cycloheximide. […] The estimated half-life of Ubiq(Y)Luc in these cells is about 170-200 minutes, which is far longer than the half-lives reported by Varshavsky (1992) for P-galactosidase containing a tyrosine residue at the N-terminus both in E. coli and S. cerevisiae (2 and 10 minutes, respectively).
# [2] = test system: COS-7 cells; assay: cycloheximide treatment of transiently transfected COS-7 cells, luminescence of accumulated luciferase; type: cell-based, African green monkey; conditions: cycloheximide 100 μg/ml
# Method: For transfection, cells were grown to confluence in T25 flasks (Falkon, Becton Dickinson, Oxford). Transfection was conducted in 1 ml of serum-free RPMI-1640 that was mixed with 8 μg of plasmid DNA and 20 μl of Lipofectamine™2000 (GIBCO BRL). CHO cells were incubated in the transfection media for 30 minutes, HeLa cells for 1 hour, and COS-7 cells for 5 hours. Following incubation, cells were trypsinized with Trypsin-EDTA (GIBCO BRL) and collected by centrifugation. […]
# To determine firefly luciferase activity, cells were lysed by freeze/thawing. Lysate from each well (100 μl) was transferred into corresponding wells of opaque 96 well plates (Falkon, Becton Dickinson, Oxford) containing 100 μl of Bright-Glo™ Luciferase Assay System (Promega) and luminescence intensity was determined using MLX Microtiter Plate Luminometer (Dynex). The activity of Renilla luciferase was measured by mixing 40 μl samples with 100 μl of assay reagent from the Renilla Luciferase Assay System (Promega).
# The half-life of the protein encoded by plasmid pUbiq(Y)Luc 19 was determined in mammalian cells and compared to the half-lives of wild-type luciferase as well as fusion proteins comprising firefly luciferase and a mutant form of the C-ODC (Luc-PEST10). […]
# [3] = literature; cited from earlier work
# [4] = test system: S. cerevisiae; conditions: yeast / S. cerevisiae, cited from earlier work
# [5] = test system: E. coli; conditions: cited from earlier work
molecule,measurement,setting,value
C[C@@H]1C[C@@H]([C@H](O)CC2CC(=O)NC(=O)C2)C(=O)[C@@H](C)C1 [cycloheximide],time to complete inhibition of protein synthesis,[1],≤ 7.5 min
wild-type luciferase: wild-type firefly luciferase encoded by plasmid pwtLuc1,half-life,[2],about 7 hours
same,half-life,[3],about 3.68 hours
β-galactosidase,half-life,[4],20 h
same,half-life,[4]; listed as wild-type P-galactosidase,> 20 h
same,half-life,[5],more than 10 hours
